Experimental data from patent US20250353891A1 (MEDIMMUNE LIMITED, priority 2022, published 2025).
Starred links: 1 amine or outer side, 2 acyl side, 3 side chain; linkers in the order of their positions; H or OH if unused. Non-standard residues stand in square brackets, D forms with d. Residues, ends and D or L forms follow the SMILES beside them. Groups on a side chain read outwards from the residue. *: point of attachment. C20 diacid = O=C(O)CCCCCCCCCCCCCCCCCCC(=O)*; C18 diacid = O=C(O)CCCCCCCCCCCCCCCCC(=O)*; γGlu = O=C(O)[C@H](CCC(=O)[*:2])N[*:1]; αMeF = C[C@](N)(Cc1ccccc1)C(=O)O; AEEA = NCCOCCOCC(=O)O; Aib = CC(C)(N)C(=O)O

How the values were obtained:
[1] = target: human glucagon receptor (hGCGR) (Homo sapiens, UniProt P47871); experiment: cAMP production (HTRF) in CHO cells expressing hGCGR; format: cell-based; parameters: expressed in transfected cells; conditions: Table 6, peptides modified at position 17; cAMP in CHO hGCGR cells; geometric mean; read-out: hGluc-R EC50
Method in brief: (§1)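 Potency values represent EC50 from 4-parameter logistic curves of HTRF % Delta F signal. Receptor-expressing CHO cells (hGCGR 2×10^5 cells/mL, hGLP-1R 1×10^5 cells/mL) were exposed for 30 min at room temperature before two-step cAMP detection.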

[2] = target: human GLP-1 receptor (hGLP-1R) (Homo sapiens, UniProt P43220); experiment: cAMP production (HTRF) in CHO cells expressing hGLP-1R; format: cell-based; parameters: expressed in transfected cells; conditions: for EC50: Table 6, peptides modified at position 17, cAMP in CHO hGLP-1R cells, geometric mean, read-out: hGLP-1R EC50; for % Relative Potency Ratio: Table 6, % GLP-1R activity relative to GLP-1 / % GlucR activity relative to glucagon
Method in brief: as §1

Chain of human glucagon receptor (hGCGR) (P47871 26-477): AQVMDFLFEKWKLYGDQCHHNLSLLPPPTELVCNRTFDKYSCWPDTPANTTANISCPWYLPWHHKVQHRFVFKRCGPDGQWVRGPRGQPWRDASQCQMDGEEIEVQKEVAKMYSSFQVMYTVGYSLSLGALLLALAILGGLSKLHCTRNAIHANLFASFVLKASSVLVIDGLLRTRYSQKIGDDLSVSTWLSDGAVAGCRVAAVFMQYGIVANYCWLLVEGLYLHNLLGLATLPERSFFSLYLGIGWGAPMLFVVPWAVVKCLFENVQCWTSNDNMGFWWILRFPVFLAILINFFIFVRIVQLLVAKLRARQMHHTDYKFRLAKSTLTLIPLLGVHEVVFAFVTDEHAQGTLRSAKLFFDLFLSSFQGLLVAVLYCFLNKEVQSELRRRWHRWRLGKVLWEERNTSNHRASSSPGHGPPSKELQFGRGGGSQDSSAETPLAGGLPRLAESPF
Chain of human GLP-1 receptor (hGLP-1R) (P43220 24-463): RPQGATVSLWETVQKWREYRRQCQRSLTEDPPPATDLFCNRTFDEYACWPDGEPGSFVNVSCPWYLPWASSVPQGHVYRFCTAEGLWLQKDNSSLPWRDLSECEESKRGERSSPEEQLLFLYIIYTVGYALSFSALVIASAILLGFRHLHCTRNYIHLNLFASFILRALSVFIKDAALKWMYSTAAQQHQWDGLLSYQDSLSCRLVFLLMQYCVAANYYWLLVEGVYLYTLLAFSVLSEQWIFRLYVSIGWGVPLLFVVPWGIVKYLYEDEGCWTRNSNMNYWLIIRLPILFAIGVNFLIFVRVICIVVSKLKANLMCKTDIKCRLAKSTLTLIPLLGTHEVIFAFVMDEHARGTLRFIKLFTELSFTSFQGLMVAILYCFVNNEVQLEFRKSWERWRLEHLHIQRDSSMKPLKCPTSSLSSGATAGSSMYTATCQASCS

| EC50 [1] [nM] | EC50 [2] [nM] | % Relative Potency Ratio [2] | Compound |
| --- | --- | --- | --- |
| 0.0569 | 0.00804 | 14.0 | CC(C)C[C@H](NC(=O)[C@H](CC(C)C)NC(=O)[C@H](Cc1c[nH]c2ccccc12)NC(=O)[C@H](CCC(N)=O)NC(=O)[C@@H](NC(=O)[C@H](Cc1ccccc1)NC(=O)[C@H](CC(=O)O)NC(=O)[C@H](CCCNC(=N)N)NC(=O)[C@H](C)NC(=O)[C@H](CCCNC(=N)N)NC(=O)[C@H](CCCCNC(=O)COCCOCCNC(=O)COCCOCCNC(=O)CC[C@H](NC(=O)CCCCCCCCCCCCCCCCC(=O)O)C(=O)O)NC(=O)[C@@H](NC(=O)[C@H](CC(=O)O)NC(=O)[C@H](CC(C)C)NC(=O)[C@](C)(Cc1ccccc1)NC(=O)[C@H](CCCCN)NC(=O)[C@H](CO)NC(=O)[C@@H](NC(=O)[C@H](CC(=O)O)NC(=O)[C@H](CO)NC(=O)[C@@H](NC(=O)[C@H](Cc1ccccc1)NC(=O)[C@@H](NC(=O)CNC(=O)[C@H](CCC(N)=O)NC(=O)C(C)(C)NC(=O)[C@@H](N)Cc1c[nH]cn1)[C@@H](C)O)[C@@H](C)O)C(C)C)[C@@H](C)O)C(C)C)C(=O)N[C@@H](C)C(=O)NC(C)(C)C(=O)NCC(N)=O [Peptide 474] (H-H[Aib]QGTFTSDVSK[αMeF]LDTK([AEEA-AEEA-γGlu-C18 diacid])RARDFVQWLLA[Aib]G-NH2; N-terminus assumed) |
| 0.0615 | 0.00675 | 18.0 | CC(C)C[C@H](NC(=O)[C@H](CC(C)C)NC(=O)[C@H](Cc1c[nH]c2ccccc12)NC(=O)[C@H](CCC(N)=O)NC(=O)[C@@H](NC(=O)[C@H](Cc1ccccc1)NC(=O)[C@H](CC(=O)O)NC(=O)[C@H](CCCNC(=N)N)NC(=O)[C@H](C)NC(=O)[C@H](CCCNC(=N)N)NC(=O)[C@H](CCCCNC(=O)COCCOCCNC(=O)COCCOCCNC(=O)CC[C@H](NC(=O)CCCCCCCCCCCCCCCCCCC(=O)O)C(=O)O)NC(=O)[C@@H](NC(=O)[C@H](CC(=O)O)NC(=O)[C@H](CC(C)C)NC(=O)[C@](C)(Cc1ccccc1)NC(=O)[C@H](CCCCN)NC(=O)[C@H](CO)NC(=O)[C@@H](NC(=O)[C@H](CC(=O)O)NC(=O)[C@H](CO)NC(=O)[C@@H](NC(=O)[C@H](Cc1ccccc1)NC(=O)[C@@H](NC(=O)CNC(=O)[C@H](CCC(N)=O)NC(=O)C(C)(C)NC(=O)[C@@H](N)Cc1c[nH]cn1)[C@@H](C)O)[C@@H](C)O)C(C)C)[C@@H](C)O)C(C)C)C(=O)N[C@@H](C)C(=O)NC(C)(C)C(=O)NCC(N)=O [Peptide 475] (H-H[Aib]QGTFTSDVSK[αMeF]LDTK([AEEA-AEEA-γGlu-C20 diacid])RARDFVQWLLA[Aib]G-NH2) |
| 0.104 | 0.0573 | 3.6 | CC(C)C[C@H](NC(=O)[C@H](CC(C)C)NC(=O)[C@H](Cc1c[nH]c2ccccc12)NC(=O)[C@H](CCCNC(=N)N)NC(=O)[C@@H](NC(=O)[C@H](Cc1ccccc1)NC(=O)[C@H](CC(=O)O)NC(=O)[C@H](CCC(N)=O)NC(=O)[C@H](C)NC(=O)[C@H](CCCNC(=N)N)NC(=O)[C@H](CCCCNC(=O)COCCOCCNC(=O)COCCOCCNC(=O)CC[C@H](NC(=O)CCCCCCCCCCCCCCCCC(=O)O)C(=O)O)NC(=O)[C@@H](NC(=O)[C@H](CC(=O)O)NC(=O)[C@H](CC(C)C)NC(=O)[C@](C)(Cc1ccccc1)NC(=O)[C@H](CCCCN)NC(=O)[C@H](CO)NC(=O)[C@@H](NC(=O)[C@H](CC(=O)O)NC(=O)[C@H](CO)NC(=O)[C@@H](NC(=O)[C@H](Cc1ccccc1)NC(=O)[C@@H](NC(=O)CNC(=O)[C@H](CCC(N)=O)NC(=O)C(C)(C)NC(=O)[C@@H](N)Cc1c[nH]cn1)[C@@H](C)O)[C@@H](C)O)C(C)C)[C@@H](C)O)C(C)C)C(=O)N[C@@H](C)C(=O)NC(C)(C)C(=O)NCC(N)=O [Peptide 476] (H-H[Aib]QGTFTSDVSK[αMeF]LDTK([AEEA-AEEA-γGlu-C18 diacid])RAQDFVRWLLA[Aib]G-NH2) |
| 0.19 | 0.00918 | 40.9 | CC(C)C[C@H](NC(=O)[C@H](Cc1c[nH]c2ccccc12)NC(=O)[C@H](CCCNC(=N)N)NC(=O)[C@@H](NC(=O)[C@H](Cc1ccccc1)NC(=O)[C@H](CC(=O)O)NC(=O)[C@H](CCC(N)=O)NC(=O)[C@H](C)NC(=O)[C@H](CCCNC(=N)N)NC(=O)[C@H](CCCCNC(=O)COCCOCCNC(=O)COCCOCCNC(=O)CC[C@H](NC(=O)CCCCCCCCCCCCCCCCC(=O)O)C(=O)O)NC(=O)[C@@H](NC(=O)[C@H](CC(=O)O)NC(=O)[C@H](CC(C)C)NC(=O)[C@](C)(Cc1ccccc1)NC(=O)[C@H](CCCCN)NC(=O)[C@H](CO)NC(=O)[C@@H](NC(=O)[C@H](CC(=O)O)NC(=O)[C@H](CO)NC(=O)[C@@H](NC(=O)[C@H](Cc1ccccc1)NC(=O)[C@@H](NC(=O)CNC(=O)[C@H](CCC(N)=O)NC(=O)C(C)(C)NC(=O)[C@@H](N)Cc1c[nH]cn1)[C@@H](C)O)[C@@H](C)O)C(C)C)[C@@H](C)O)C(C)C)C(=O)N[C@@H](CC(C)C)C(=O)N[C@@H](CCC(=O)O)C(=O)NC(C)(C)C(=O)N[C@@H](CCCCN)C(N)=O [Peptide 478] (H-H[Aib]QGTFTSDVSK[αMeF]LDTK([AEEA-AEEA-γGlu-C18 diacid])RAQDFVRWLLE[Aib]K-NH2) |
| 0.207 | 0.0342 | 12.0 | CC(C)C[C@H](NC(=O)[C@H](Cc1c[nH]c2ccccc12)NC(=O)[C@H](CCCNC(=N)N)NC(=O)[C@@H](NC(=O)[C@H](Cc1ccccc1)NC(=O)[C@H](CC(=O)O)NC(=O)[C@H](CCC(N)=O)NC(=O)[C@H](C)NC(=O)[C@H](CCCNC(=N)N)NC(=O)[C@H](CCCCNC(=O)COCCOCCNC(=O)COCCOCCNC(=O)CC[C@H](NC(=O)CCCCCCCCCCCCCCCCCCC(=O)O)C(=O)O)NC(=O)[C@@H](NC(=O)[C@H](CC(=O)O)NC(=O)[C@H](CC(C)C)NC(=O)[C@](C)(Cc1ccccc1)NC(=O)[C@H](CCCCN)NC(=O)[C@H](CO)NC(=O)[C@@H](NC(=O)[C@H](CC(=O)O)NC(=O)[C@H](CO)NC(=O)[C@@H](NC(=O)[C@H](Cc1ccccc1)NC(=O)[C@@H](NC(=O)CNC(=O)[C@H](CCC(N)=O)NC(=O)C(C)(C)NC(=O)[C@@H](N)Cc1c[nH]cn1)[C@@H](C)O)[C@@H](C)O)C(C)C)[C@@H](C)O)C(C)C)C(=O)N[C@@H](CC(C)C)C(=O)N[C@@H](CCC(=O)O)C(=O)NC(C)(C)C(=O)N[C@@H](CCCCN)C(N)=O [Peptide 479] (H-H[Aib]QGTFTSDVSK[αMeF]LDTK([AEEA-AEEA-γGlu-C20 diacid])RAQDFVRWLLE[Aib]K-NH2; N-terminus assumed) |
| 0.136 | 0.0126 | 21.4 | CC(C)C[C@H](NC(=O)[C@H](Cc1c[nH]c2ccccc12)NC(=O)[C@H](CCC(N)=O)NC(=O)[C@@H](NC(=O)[C@H](Cc1ccccc1)NC(=O)[C@H](CC(=O)O)NC(=O)[C@H](CCCNC(=N)N)NC(=O)[C@H](C)NC(=O)[C@H](CCCNC(=N)N)NC(=O)[C@H](CCCCNC(=O)COCCOCCNC(=O)COCCOCCNC(=O)CC[C@H](NC(=O)CCCCCCCCCCCCCCCCC(=O)O)C(=O)O)NC(=O)[C@@H](NC(=O)[C@H](CC(=O)O)NC(=O)[C@H](CC(C)C)NC(=O)[C@](C)(Cc1ccccc1)NC(=O)[C@H](CCCCN)NC(=O)[C@H](CO)NC(=O)[C@@H](NC(=O)[C@H](CC(=O)O)NC(=O)[C@H](CO)NC(=O)[C@@H](NC(=O)[C@H](Cc1ccccc1)NC(=O)[C@@H](NC(=O)CNC(=O)[C@H](CCC(N)=O)NC(=O)C(C)(C)NC(=O)[C@@H](N)Cc1c[nH]cn1)[C@@H](C)O)[C@@H](C)O)C(C)C)[C@@H](C)O)C(C)C)C(=O)N[C@@H](CC(C)C)C(=O)N[C@@H](CCC(=O)O)C(=O)NC(C)(C)C(=O)N[C@@H](CCCCN)C(N)=O [Peptide 480] (H-H[Aib]QGTFTSDVSK[αMeF]LDTK([AEEA-AEEA-γGlu-C18 diacid])RARDFVQWLLE[Aib]K-NH2; N-terminus assumed) |
| 0.35 | 0.0522 | 13.3 | CC(C)C[C@H](NC(=O)[C@H](Cc1c[nH]c2ccccc12)NC(=O)[C@H](CCC(N)=O)NC(=O)[C@@H](NC(=O)[C@H](Cc1ccccc1)NC(=O)[C@H](CC(=O)O)NC(=O)[C@H](CCCNC(=N)N)NC(=O)[C@H](C)NC(=O)[C@H](CCCNC(=N)N)NC(=O)[C@H](CCCCNC(=O)COCCOCCNC(=O)COCCOCCNC(=O)CC[C@H](NC(=O)CCCCCCCCCCCCCCCCCCC(=O)O)C(=O)O)NC(=O)[C@@H](NC(=O)[C@H](CC(=O)O)NC(=O)[C@H](CC(C)C)NC(=O)[C@](C)(Cc1ccccc1)NC(=O)[C@H](CCCCN)NC(=O)[C@H](CO)NC(=O)[C@@H](NC(=O)[C@H](CC(=O)O)NC(=O)[C@H](CO)NC(=O)[C@@H](NC(=O)[C@H](Cc1ccccc1)NC(=O)[C@@H](NC(=O)CNC(=O)[C@H](CCC(N)=O)NC(=O)C(C)(C)NC(=O)[C@@H](N)Cc1c[nH]cn1)[C@@H](C)O)[C@@H](C)O)C(C)C)[C@@H](C)O)C(C)C)C(=O)N[C@@H](CC(C)C)C(=O)N[C@@H](CCC(=O)O)C(=O)NC(C)(C)C(=O)N[C@@H](CCCCN)C(N)=O [Peptide 481] (H-H[Aib]QGTFTSDVSK[αMeF]LDTK([AEEA-AEEA-γGlu-C20 diacid])RARDFVQWLLE[Aib]K-NH2; N-terminus assumed) |
